In assay [1] the test system is Primary human T-cells. In words: Primary Human T-Cell Proliferation Assay Stimulated with IL-2 (CellTiter-Glo). Type of assay: cell-based. Particulars: primary human T-cells stimulated with IL-2, proliferation, read-out: IC50, Example 42. The essentials:
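Peripheral blood T-cells pre-activated with anti-CD3/anti-CD28 and IL-2 were washed free of IL-2, then cultured with compound plus IL-2 for 72 hours at 37° C, duplicate wells. Viability read as ATP by CellTiter-Glo luminescence; IC50 reported.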
(In ATP-based viability assays light output follows the ATP content of the culture.)

Assay [2] relates to up-regulation of ICAM-1 (CD54) by IFNγ in A549 lung epithelial cells. Nature of the assay: A549 Epithelial Line Stimulated with IFNγ (ICAM-1 surface expression, FACS). Particulars: ICAM-1 expression by FACS, read-out: IC50, Example 43. Type of assay: cell-based, human. The procedure, abridged:
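A549 cells pre-incubated 1 h with compound (30 μM to 14 nM, 5% FBS, 0.3% DMSO), then stimulated with IFNγ (75 ng/mL) for 24 h. Surface ICAM-1 stained with APC anti-CD54 and read by flow cytometry; geometric mean of live-gated events plotted against concentration for EC50.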
On the technique in general: In flow cytometry, cells or beads pass a laser one at a time.

Where [3] appears, read: A549 cells stimulated with IFNγ.
[4] abbreviates: Homo sapiens, A549, A549 cells stimulated with IFNγ.

This note sets out measurements from patent US11827628B2, “Compositions and methods for inhibition of the JAK pathway” (Rigel Pharmaceuticals, Inc., priority 2005, dated 2023).

Structures can show the parent of a compound that is named as a salt. Where two headings read alike, the source gives them in different places.

By IC50 is commonly meant the concentration needed to halve the response being measured.

On to `Cc1noc(CCc2ccc(Nc3nc(Nc4cccc(S(N)(=O)=O)c4)ncc3F)cc2)n1` [III-106, N2-(3-Aminosulfonylphenyl)-5-fluoro-N4-[4-(3-methyl-1,2,4-oxadiazol-5-yl)ethylenephenyl]-2,4-pyrimidinediamine], for which the results for the IC50 in assay [1] and in assay [2] (setting [3]) were 0.0751 µM and 5.9 µM, respectively.

On to `NS(=O)(=O)c1cccc(Nc2ncc(F)c(Nc3ccc(Cc4ccncc4)cc3)n2)c1` [III-129, N2-(3-Aminosulfonylphenyl)-5-fluoro-N4-[4-(4-pyridylmethyl)phenyl]-2,4-pyrimidinediamine Methanesulfonic Acid Salt], for which the IC50 in assay [1] came out at 0.18 µM; in assay [2] (setting [3]) it was 31.3 µM.

On to `Cc1cc(Nc2nc(Nc3ccc(S(N)(=O)=O)cc3)ncc2F)cc(C)c1N1CCN(C)CC1` [IX-44, N2-(4-Aminosulfonylphenyl)-N4-[3,5-dimethyl-4-(4-methylpiperazin-1-yl]phenyl)-5-fluoro-2,4-pyrimidinediamine], for which the IC50 turned out to be 0.789 µM in assay [1] (Homo sapiens, T-cell) and 8.17 µM in assay [2] (setting [4]).

As to `COC(=O)c1ccc(Nc2nc(Nc3ccc(F)c(S(N)(=O)=O)c3)ncc2F)s1` [IX-48, N2-(3-Aminosulfonyl-4-fluorophenyl)-5-fluoro-N4-(5-methoxycarbonyl-thiophene-2-yl)-2,4-pyrimidinediamine], the IC50 was 2.62 µM in assay [1] (Homo sapiens, T-cell) and 9.56 µM in assay [2] (setting [4]).

Turning to `COc1ccc(Nc2nc(Nc3cccc(S(=O)(=O)NN4CCC(C)CC4)c3)ncc2F)cc1Cl` [VI-9, N4-(3-Chloro-4-methoxyphenyl)-5-fluoro-N2-[3-(4-methylpipendin-1-yl)aminosulfonylphenyl]-2,4-pyrimidinediamine], the IC50 in assay [1] amounted to 0.945 µM; in assay [2] (setting [3]) it was 9.96 µM.

Take “N4-(3,4-Dichlorophenyl)-5-fluoro-N2-[3-(4-methylpipendin-1-yl)aminosulfonylphenyl]-2,4-pyrimidinediamine [VI-10]”: the IC50 turned out to be 2.4 µM in assay [1] and 24.9 µM in assay [2] (setting [3]).
